{"source": "patent US5409948A", "about": "(priority 1992, dated 1995)", "key": {"[1]": {"test_system": "cholinesterase (ChE)", "details": "cited from earlier work"}, "[2]": {"test_system": "neuromuscular AChR", "details": "cited from earlier work"}, "[3]": {"details": "in vivo; cited from earlier work"}, "[4]": {"test_system": "plasma AChE", "assay_type": "in vivo, Fischer-344 rats"}, "[5]": {"test_system": "patients with Alzheimer's disease", "details": "human, in vivo; cited from earlier work"}, "[6]": {"test_system": "scopolamine-induced impairment in learning performance of rats", "set-up": "species or system male Fischer-344 rats", "details": "rat, in vivo"}, "[7]": {"test_system": "brain and plasma AChE and BChE", "details": "cited from earlier work"}, "[8]": {"test_system": "scopolamine-induced impairment in learning performance of rats", "details": "rat, in vivo; cited from earlier work"}, "[9]": {"test_system": "cholinesterase", "details": "cited from earlier work"}, "[10]": {"test_system": "memory consolidation in mice", "details": "mouse, in vivo; cited from earlier work"}, "[11]": {"test_system": "performance deficits induced by scopolamine", "details": "in vivo; cited from earlier work"}, "[12]": {"test_system": "acetylcholine in brain", "details": "in vivo; cited from earlier work"}, "[13]": {"biological_target": "human acetylcholinesterase (AChE)", "details": "read-out: IC50 against human AChE; cited from earlier work"}, "[14]": {"biological_target": "human butyrylcholinesterase (BChE)", "details": "read-out: IC50 against human BChE; cited from earlier work"}, "[15]": {"details": "in vivo"}, "[16]": {"details": "rat, in vivo"}, "[17]": {"test_system": "human acetylcholinesterase (AChE)", "assay_type": "biochemical"}}, "note": "“Also recorded” adds a separate entry of the source.", "data": [{"smiles": "CNC(=O)Oc1ccc2c(c1)[C@@]1(C)CCN(C)[C@H]1N2C", "note": "[(+)-physostigmine]", "values": [{"measurement": "inhibition of cholinesterase", "setting": "[1]", "value": "negligible inhibition; also recorded: negligible ChE inhibitory activity"}]}, {"smiles": "CNC(=O)Oc1ccc2c(c1)[C@]1(C)CCN(C)[C@@H]1N2C", "note": "[Physostigmine]", "values": [{"measurement": "properties at the neuromuscular AChR", "setting": "[2]", "value": "blocking properties as well as agonist properties"}, {"measurement": "LD50", "setting": "[3]", "value": 0.6, "unit": "mg/kg"}, {"measurement": "AChE inhibition at 60 minutes", "setting": "[4]; rat, in vivo", "value": "negligible"}, {"measurement": "AChE inhibition, immediate", "setting": "[4]; rat, in vivo", "value": "approximately 50%"}, {"measurement": "pharmacological half life in patients", "setting": "[5]", "value": "short pharmacological half life"}, {"measurement": "activity in 14-unit T-maze model, in words", "setting": "[6]", "value": "no significant activity in this model"}, {"measurement": "IC50 of brain vs plasma AChE and BChE", "setting": "[7]", "value": "similar"}]}, {"smiles": "CN1[C@@H]2C[C@@H](OC(=O)[C@H](CO)c3ccccc3)C[C@H]1[C@@H]1O[C@@H]12", "note": "[SCOP, reference compound]", "values": [{"measurement": "all five measures of the maze task", "setting": "[6]", "value": "significantly worse performance in all five measures of the maze task"}]}, {"smiles": "Nc1c2c(nc3ccccc13)CCCC2", "note": "[THA, tetrahydroaminoacridine]", "values": [{"measurement": "toxicity in Alzheimer's patients", "setting": "[5]", "value": "causes toxicity"}]}, {"smiles": "CCCCCCCNC(=O)Oc1ccc2c(c1)[C@]1(C)CCN(C)[C@@H]1N2C", "note": "[heptyl-Phy]", "values": [{"measurement": "alternation error performance", "setting": "[8]", "value": "lack of improvement"}, {"measurement": "learning impairment of SCOP-treated rats", "setting": "[8]", "value": "failed to ameliorate the learning impairment"}, {"measurement": "number of errors", "setting": "[8]", "value": "significantly reduced the number of errors"}, {"measurement": "scopolamine-induced learning impairment of rats", "setting": "[8]", "value": "attenuated the scopolamine-induced learning impairment"}, {"measurement": "inhibitory action on cholinesterase vs parent compound", "setting": "[9]", "value": "longer inhibitory action on cholinesterase"}, {"measurement": "toxicity vs parent compound", "setting": "[3]", "value": "less toxicity than the parent compound"}, {"measurement": "memory consolidation", "setting": "[10]", "value": "facilitates memory consolidation in mice"}, {"measurement": "performance deficits induced by scopolamine", "setting": "[11]", "value": "reverses the performance deficits induced by scopolamine"}, {"measurement": "increases in acetylcholine in brain vs parent compound", "setting": "[12]", "value": "more persistent increases in acetylcholine in brain"}, {"measurement": "activity in 14-unit T-maze model, in words", "setting": "[6]", "value": "inferior to phenserine"}, {"measurement": "mean errors per trial at each block of three trials", "setting": "[6]", "value": "reduced error performance compared to the SCOP group"}, {"measurement": "mean errors per trial for 15 trials", "setting": "[6]", "value": "significantly (P<0.05) better performance than the SCOP group"}, {"measurement": "ratio of alternation errors per trial to opportunities", "setting": "[6]", "value": "no significant effect"}]}, {"smiles": "CN1CC[C@@]2(C)c3cc(OC(=O)Nc4ccccc4)ccc3N(C)[C@@H]12", "note": "[phenserine, (-)-N-phenylcarbamoyl eseroline]", "values": [{"measurement": "IC50", "setting": "[13]", "value": "24 ± 6", "unit": "nM"}, {"measurement": "IC50", "setting": "[14]", "value": "1300 ± 8.5", "unit": "nM"}, {"measurement": "AChE inhibition at 8 hours", "setting": "[4]; at 8 hours", "value": 43.0, "unit": "%"}, {"measurement": "AChE inhibition and its duration, in words", "setting": "[4]; rat, in vivo", "value": "long, steady state inhibition of AChE at very low and non-toxic doses"}, {"measurement": "AChE inhibition compared to physostigmine", "setting": "[4]; rat, in vivo", "value": "dramatically higher inhibition of AChE at a lower dose"}, {"measurement": "duration of high and relatively constant AChE inhibition", "setting": "[4]; rat, in vivo", "value": "more than 8 hours"}, {"measurement": "maximum AChE inhibition", "setting": "[4]; rat, in vivo", "value": 73.5, "unit": "%"}, {"measurement": "LD50 (in words)", "setting": "[15]", "value": "substantially higher than that of physostigmine itself"}, {"measurement": "central tremor", "setting": "[15]", "value": "a slight central tremor is evident"}, {"measurement": "toxicity or deaths", "setting": "[15]", "value": "have not been associated with toxicity or deaths"}, {"measurement": "activity of animals", "setting": "[16]", "value": "seemed less active than at other doses"}, {"measurement": "behavior of animals", "setting": "[16]", "value": "very aggressive and difficult to handle"}, {"measurement": "peripheral cholinergic effects, such as salivation and diarrhea", "setting": "[16]", "value": "not noticed at any doses tested"}, {"measurement": "side effects", "setting": "[16]", "value": "chewing, grooming, and wet dog shakes"}, {"measurement": "toxic side effects without peripheral cholinergic inhibitors", "setting": "[16]", "value": "large doses can be administered without toxic side effects"}, {"measurement": "selectivity of anticholinesterase action (AChE vs BChE)", "setting": "[17]", "value": "high selectivity of anticholinesterase action"}, {"measurement": "SCOP-induced learning impairment", "setting": "[6]", "value": "significantly attenuated the SCOP-induced learning impairment"}, {"measurement": "alternation error ratio", "setting": "[6]", "value": "only 10.0 and 1.5 mg/kg doses of phenserine improved alternation error performance at blocks 4 and 5 and block 5, respectively; also recorded: only the 10.0 and 1.5 mg/kg doses of phenserine reduced the ratio significantly at blocks 4 and 5 and block 5, respectively"}, {"measurement": "error performance", "setting": "[6]", "value": "all but the 7.5 mg/kg dose of phenserine significantly ameliorated error performance"}, {"measurement": "error performance at blocks 4 and 5", "setting": "[6]", "value": "improved error performance at maze training blocks 4 and 5 except the 7.5 mg/kg dose"}, {"measurement": "number of errors at block 4", "setting": "[6]", "value": "reduced significantly at block 4 by all but the 7.5 mg/kg dose"}, {"measurement": "runtime", "setting": "[6]", "value": "all but the 7.5 mg/kg dose of phenserine significantly ameliorated error performance, runtime"}, {"measurement": "shock duration", "setting": "[6]", "value": "all but the 7.5 mg/kg dose of phenserine significantly ameliorated error performance, runtime, shock frequency and shock duration"}, {"measurement": "shock frequency", "setting": "[6]", "value": "all but the 7.5 mg/kg dose of phenserine significantly ameliorated error performance, runtime, shock frequency"}, {"measurement": "therapeutic window", "setting": "[6]", "value": "wide therapeutic window"}, {"measurement": "time after i.p. administration at which improvement of learning performance was observed", "setting": "[6]; ip", "value": "more than 1 hour"}]}]}
